Measurements as given in patent publication US12685724B2, “Antidepressant therapy” (ICHILOV TECH LTD., priority 2020, dated 2026).

How the values were obtained:
[1] = system: patients suffering from post-stroke depression (PSD); assay: Clinical study of maraviroc in patients suffering from post-stroke depression (PSD); format: in vivo, human
Procedure: A clinical study to evaluate the safety, tolerability and efficacy of maraviroc in patients suffering from post-stroke depression (PSD) was performed as follows:
Ten men and women aged 50 to 86 years who experience stroke, i.e., cerebral infarction or transient ischemic attack (TIA) prior to the initiation of the study were enrolled to the study. These subjects also experienced a major depressive episode that develops within 12 months from the stroke/TIA. Clinical diagnosis of stroke was performed according to the World Health Organization Monica Project.
Exclusion criteria comprise e.g. 1) significant acute neurologic illness including: impaired consciousness, Parkinson's disease, Huntington's chorea, progressive supranuclear paralysis, brain tumor, subdural hematoma, multiple sclerosis, hydrocephalus, Binswanger's disease, or severe aphasia, 2) patients diagnosed with dementia or significant cognitive impairment as defined by a MoCA score <20 at screening, or other neurological conditions (multiple sclerosis, Parkinson's disease, epilepsy, Huntington's chorea, brain tumor, subdural hematoma, multiple sclerosis, hydrocephalus, or Binswanger's disease), 3) positive serology for Hepatitis B or C; or for HIV.
Each subject received 300 mg maraviroc daily or 150 mg daily for 10 weeks. Post-treatment follow-up was conducted for 8 weeks after the last dose of Maraviroc. During the 10 weeks of maraviroc treatment the subjects were evaluated every two weeks, and during the 8 weeks of follow-up the subjects were evaluated at the 4th and 8th week after the last dose of maraviroc.
The subjects were evaluated for the efficacy of maraviroc by assessing the improvement in depressive symptoms determined by a change from baseline (i.e., Day 1 pre-dose) in the Montgomery-Asberg Depression Rating Scale (MADRS) total score. Other assessments included, for example, assessment of depressive symptoms by the 16-item Quick Inventory of Depressive Symptomatology-Self Report (QIDS-SR16); assessment of remission, defined as a MADRS total score ≤10; assessment of response, defined as a ≥50% reduction from baseline in MADRS total score; evaluation of symptoms of anxiety as assessed by the Generalized Anxiety Disorder 7-item Scale (GAD-7)—each item is rated on a 4-point scale (0 to 3), with the total score range from 0-21 (higher scores indicating more anxiety); and evaluation of cognitive status, as assessed by cognitive score based on repeatable computerized battery of cognitive tests (Neurotrax) and Montreal Cognitive Assessment (MoCA).
Additional assessments include e.g. the clinical global impression-improvement (CGI-I), a 7 point scale that requires the clinician to assess how much the patient's illness has improved or worsened relative to a baseline state at the beginning of the intervention; the clinical global impression-severity (CGI-S), which evaluates the severity of psychopathology from 1 to 7, and provides an overall clinician-determined summary measure that takes into account all available information, including knowledge of the subject's history, psychosocial circumstances, symptoms, behavior, and the impact of the symptoms on the subject's ability to function; Patient Global Impression scales, commonly used measures of symptom severity, treatment response and the efficacy of treatments; the patient global impression-severity (PGI-S), that provides an overall patient-rated summary measure that assesses the severity of the subject's MDD; the patient global impression of change (PGI-C) which provides an overall patient-rated summary that assesses subject perception of change in their MDD since starting study treatment; the EuroQol Group; 5 dimension (EQ-5D) which is a standardized 2-part instrument for use as a measure of health outcome, primarily designed for self-completion by respondents. […]

[2] = system: simian immunodeficiency virus (SIV)-mediated CNS disease; details: rhesus macaques; cited from earlier work
[3] = system: hemiparkinsonian monkeys; details: cited from earlier work
[4] = system: subjects with CCR5-tropic HIV-1; details: cited from earlier work

Structure (SMILES): Cc1nnc(C(C)C)n1[C@@H]1C[C@H]2CC[C@@H](C1)N2CC[C@H](NC(=O)C1CCC(F)(F)CC1)c1ccccc1 [maraviroc]
- effect on anxiety symptoms ([1]; PSD patients, maraviroc 300 mg daily, GAD-7): effective in reducing anxiety symptoms
- side effects reported by the participants during the study ([1]; PSD patients, maraviroc 300 mg once daily oral): 1 transient impotence, 1 severe constipation (drug-unrelated)
- MADRS score following 10 weeks of treatment ([1]; PSD patients, maraviroc 300 mg once daily oral, 10 weeks, initial MADRS about 35-40): 5-10
- MADRS score, best outcome (normal/symptom-absent, remission) ([1]; PSD patients, maraviroc 300 mg once daily oral, initial MADRS >34): < 7
- GAD-7 at data collection ([1]; Patient 1, 10 weeks maraviroc 300 mg daily, add-on therapy, GAD-7 at admission 17 (severe)): 10
- GAD-7 at data collection ([1]; Patient 2, 10 weeks maraviroc 300 mg daily, add-on therapy, GAD-7 at admission 6 (mild)): 6
- GAD-7 at data collection ([1]; Patient 3, week 7 of maraviroc 300 mg daily, add-on therapy, GAD-7 at admission 8 (mild)): 7
- CGI severity (CGI-S) after four weeks of treatment ([1]; Patient 4, maraviroc monotherapy 300 mg daily, CGI=5 (markedly ill) at admission): 3
- GAD-7 at data collection ([1]; Patient 4, week 4 of maraviroc 300 mg daily, monotherapy, GAD-7 at admission 14 (moderate)): 8
- depressive symptoms on quick inventory of depressive symptoms-self report (QIDS-SR) ([1]; all 4 PSD patients, maraviroc 300 mg once daily oral, 4-10 weeks): All patients improved their depressive symptoms
- MADRS score after treatment ([1]; all 4 PSD patients, maraviroc 300 mg once daily oral, 4-10 weeks, initial MADRS about 35-40 (>34, severe)): < 20
- time from first dose to beginning of treatment effects (time to response), depressive scores evaluated by senior psychiatrist ([1]; all 4 PSD patients, maraviroc 300 mg once daily oral, add-on (patients 1-3) or monotherapy (patient 4)): 1-2 weeks
- time from first dose to beginning of self-reported treatment effect ([1]; all 4 PSD patients, self-report depressive scores, maraviroc 300 mg once daily oral): 1-2 weeks
- safety and tolerability ([1]; human PSD patients): well-tolerated without safety concerns
- SIV-mediated CNS disease (SIV RNA in CSF and brain, CD68 immunostaining, axonal APP immunostaining) [2]: inhibited simian immunodeficiency virus (SIV)-mediated CNS disease
- effect on the nigrostriatum [3]: protects the nigrostriatum
- infiltration of T cells into the central nervous system [3]: attenuates the infiltration of T cells into the central nervous system
- potential treatment-emergent adverse events ([4]; pooled data from two trials in subjects with CCR5-tropic HIV-1): Depressive disorders and anxiety symptoms
- most common adverse events, at higher frequency compared with placebo ([4]; treatment-experienced subjects): upper respiratory tract infections, cough, pyrexia, rash, and dizziness
